Literature values as cited in patent US6184217A (Cephalon, Inc., priority 1997, dated 2001).

Experiments:
[1] = tested on: smooth muscle contraction; details: cited from earlier work
elongation of neurazone = details: cited from earlier work
smooth muscle MLCK = details: cited from earlier work
inflammation = details: cited from earlier work
IL-2 production = details: cited from earlier work
histamine release = details: cited from earlier work
protein kinase C (PKC) = details: cited from earlier work
[2] = tested on: lethality resulting from endotoxin administration; details: in vivo; cited from earlier work

COC(=O)C1(O)CC2OC1(C)n1c3ccccc3c3c4c(c5c6ccccc6n2c5c31)C(=O)NC4 (centres unmarked) [Compound K-252a]
inhibiting smooth muscle contraction [1]: inhibiting smooth muscle contraction
inhibiting elongation of neurazone (elongation of neurazone): inhibiting elongation of neurazone
inhibiting smooth muscle MLCK (smooth muscle MLCK): inhibiting smooth muscle MLCK
anti-inflammatory action (inflammation): anti-inflammatory action
inhibiting IL-2 production (IL-2 production): inhibiting IL-2 production
inhibiting histamine release (histamine release): inhibiting histamine release
inhibition of protein kinase C (protein kinase C (PKC)): strongly inhibits protein kinase C (PKC)
lethality resulting from endotoxin administration [2]: reduces the lethality resulting from endotoxin administration
